# Assay results from patent publication US20220274947A1, “NOVEL HETEROARYL-TRIAZOLE COMPOUNDS AS PESTICIDES” (Bayer Aktiengesellschaft, priority 2019, published 2022).
# What was measured:
# Type in all cases: in vivo
# Rhipicephalus microplus [1] = assay: Rhipicephalus (Boophilus) microplus injection test (BOOPMI Inj); settings: 168 h, injection into adult engorged female ticks, egg deposition after 7 days, read-out: activity (efficacy: 100% means all eggs are infertile); for pest or weed control at 0.004 mg: application rate 4 μg/tick; for pest or weed control at 0.02 mg: application rate 20 μg/tick
# Experimental: Rhipicephalus (Boophilus) Microplus—Injection Test (BOOPMI Inj)
# Solvent: dimethyl sulfoxide
# To produce a suitable preparation of active compound, 10 mg of active compound are dissolved in 0.5 mL solvent, and the concentrate is diluted with solvent to the desired concentration.
# Five adult engorged female ticks (Rhipicephalus microplus) are injected with 1 μL compound solution into the abdomen. The ticks are transferred into replica plates and incubated in a climate chamber.
# After 7 days egg deposition of fertile eggs is monitored. Eggs where fertility is not visible are stored in a climate chamber till hatching after about 42 days. An efficacy of 100% means all eggs are infertile; 0% means all eggs are fertile.
# Rhipicephalus microplus [2] = assay: Rhipicephalus (Boophilus) microplus in-vitro contact test, larval cattle tick, strain Parkhurst (BOOPMI Cont); settings: application rate 5 μg/cm^2 (=500 g/ha), tick larvae, after 48 hours, read-out: activity (efficacy: 100% means all larvae are dead or moribund)
# Experimental: Rhipicephalus (Boophilus) Microplus—In-Vitro Contact Tests Larval Cattle Tick (Strain Parkhurst, Resistant Against Synthetic Pyrethroids) (BOOPMI Cont)
# 9 mg compound is solved in 1 mL acetone and diluted with acetone to the desired concentration. 250 μL of the test solution is filled in 25 mL glass test tubes and homogeneously distributed on the inner walls by rotation and tilting on a shaking device (2 h at 30 rpm). With a compound concentration of 900 ppm, an inner surface of 44.7 cm^2 and a homogeneous distribution, a dose of 5 μg/cm^2 is achieved.
# After the solvent has evaporated, each test tube is filled with 20-50 cattle tick larvae (Rhipicephalus microplus), closed with a perforated lid and incubated in a horizontal position at 85% relative humidity and 27° C. in an incubator. After 48 hours efficacy is determined. The larvae are patted on the ground of the tubes and negative geotactic behavior is recorded.
# An efficacy of 100% means all larvae are dead or moribund; 0% means no larvae are dead or moribund.
# Ctenocephalides felis = Ctenocephalides felis oral test (CTECFE Oral); settings: 48 h, read-out: activity (mortality)
# Experimental: Ctenocephalides felis—Oral Test (CTECFE Oral) Solvent: dimethyl sulfoxide
# To produce a suitable preparation of active compound, 10 mg of active compound are dissolved in 0.5 mL solvent, and the concentrate is diluted with cattle blood to the desired concentration.
# Approximately 20 adult unfed cat fleas (Ctenocephalides felis) are placed in flea chambers. The blood chamber, sealed with parafilm on the bottom, are filled with cattle blood supplied with compound solution and placed on the gauze covered top of the flea chamber, so that the fleas are able to suck the blood. The blood chamber is heated to 37° C. whereas the flea chamber is kept at room temperature.
# After 2 days mortality in % is determined. 100% means all the fleas have been killed; 0% means none of the fleas have been killed.
# Diabrotica balteata = Diabrotica balteata spray test; settings: 168 h, wheat seeds, larvae, after 7 days, read-out: activity (efficacy: 100% means all seedlings have grown up like in the untreated, uninfected control); for pest or weed control at 32 µg/disc, 100 g/ha: application rate 100 g/ha (=32 μg/well)
# Experimental: Diabrotica balteata—Spray Test Solvent: 78.0 parts by weight of acetone • • 1.5 parts by weight of dimethylformamide Emulsifier: alkylarylpolyglycol ether
# To produce a suitable preparation of active compound, 1 part by weight of active compound is mixed with the stated amount of solvent, and the concentrate is diluted with water, containing an emulsifier concentration of 1000 ppm, to the desired concentration. Further test concentrations are prepared by dilution with emulsifier containing water.
# Soaked wheat seeds (Triticum aestivum) are placed in a multiple well plate filled with agar and some water and are incubated for 1 day to germinate (5 seeds per well). The germinated wheat seeds are sprayed with a test solution containing the desired concentration of the active ingredient. Afterwards each unit is infected with 10-20 larvae of the banded cucumber beetle (Diabrotica balteata).
# After 7 days efficacy in % is determined. 100% means all the seedlings have grown up like in the untreated, uninfected control; 0% means none of the seedlings have grown.
# Myzus persicae = Myzus persicae oral test; settings: 120 h, read-out: activity (mortality)
# Experimental: Myzus persicae—Oral Test Solvent: 100 parts by weight acetone
# To produce a suitable preparation of active compound, 1 part by weight of active compound is mixed with the stated amount of solvent, and the concentrate is diluted with water to the desired concentration.
# 50 μL compound solution is filled in microtiter plates and 150 μL IPL41 insect medium (33%+15% sugar) is added to obtain a total volume of 200 μL per well. Afterwards the plates are sealed with parafilm through which a mixed population of the green peach aphid (Myzus persicae) can suck on the compound preparation.
# After 5 days mortality in % is determined. 100% means all aphids have been killed and 0% means none of the aphids have been killed.
# Spodoptera frugiperda = Spodoptera frugiperda spray test; settings: in Zea mays, 168 h, read-out: activity (mortality)
# Experimental: Spodoptera Fruaiperda—Spray Test
# Solvent: 78.0 parts by weight acetone • 1.5 parts by weight dimethylformamide Emulsifier: alkylarylpolyglycol ether
# To produce a suitable preparation of active compound, 1 part by weight of active compound is mixed with the stated amount of solvents and is diluted with water, containing an emulsifier concentration of 1000 ppm, to the desired concentration. Further test concentrations are prepared by dilution with emulsifier containing water.
# Maize (Zea mays) leaf sections are sprayed with a preparation of the active ingredient of the desired concentration. Once dry, the leaf sections are infested with fall armyworm larvae (Spodoptera frugiperda).
# After 7 days mortality in % is determined. 100% means all caterpillars have been killed and 0% means none of the caterpillars have been killed.
# Rhipicephalus sanguineus = Rhipicephalus sanguineus in-vitro contact test, adult brown dog ticks (RHIPSA Cont); settings: 48 h, after 48 hours, read-out: activity (efficacy: 100% means all ticks are dead or moribund); for pest or weed control at 1 µg/cm2, 100 g/ha: application rate 1 μg/cm^2 (=100 g/ha); for pest or weed control at 5 µg/cm2, 500 g/ha: application rate 5 μg/cm^2 (=500 g/ha)
# Experimental: Rhipicephalus sanguineus-In-Vitro Contact Tests with Adult Brown Dog Ticks ([…] Cont) 9 mg compound is solved in 1 mL acetone and diluted with acetone to the desired concentration. 250 μL of the test solution is filled in 25 mL glass test tubes and homogeneously distributed on the inner walls by rotation and tilting on a shaking device (2 h at 30 rpm). […] After 48 hours efficacy is determined. The ticks are patted on the ground of the tubes and are incubated on a heating plate at 45-50° C. for at most 5 minutes. Immotile or uncoordinated moving ticks, which are not able to escape the heat by climbing upwards, are marked as dead or moribund.
# [3] = system: Aedes aegypti strain MONHEIM; assay: Aedes aegypti test (AEDSAE surface treatment & contact assay); settings: exposure 30 minutes, 24 hours after contact, read-out: efficacy (mortality); for mortality at 20 mg/m2: surface concentration 20 mg/m^2, glazed tile; for mortality at 4 mg/m2: surface concentration 4 mg/m^2, glazed tile
# Experimental: Aedes aegypti Test (AEDSAE Surface Treatment & Contact Assay) Solvent: Aceton+2000 ppm rapeseed oil methyl ester (RME)
# In order to produce a sufficient, active ingredient containing solution it is necessary to solve the test compound in the solvent-mix (acetone at 2 mg/ml/RME 2000 ppm). This solution is pipetted onto a glazed tile and after evaporation of the acetone, adult mosquitoes of the species Aedes aegypti strain MONHEIM are placed onto the dried surface. The exposure time is 30 minutes. Mortality in percent (%) is determined 24 hours after contact of the insects to the treated surface. 100% mortality means that all tested insects are dead, whereas 0% means that no insect died.
SMILES,pest or weed control at 0.004 mg (Rhipicephalus microplus [1]) [%],pest or weed control at 5 µg/cm2 (Rhipicephalus microplus [2]) [%],mortality at 100 ppm (Ctenocephalides felis) [%],"pest or weed control at 32 µg/disc, 100 g/ha (Diabrotica balteata) [%]",mortality at 4 ppm (Myzus persicae) [%],mortality at 100 g/ha (Spodoptera frugiperda) [%],pest or weed control at 0.02 mg (Rhipicephalus microplus [1]) [%],"pest or weed control at 160 µg/disc, 500 g/ha (Diabrotica balteata; application rate 500 g/ha (=160 μg/well)) [%]",mortality at 500 g/ha (Spodoptera frugiperda) [%],"pest or weed control at 1 µg/cm2, 100 g/ha (Rhipicephalus sanguineus) [%]","pest or weed control at 5 µg/cm2, 500 g/ha (Rhipicephalus sanguineus) [%]",mortality at 20 mg/m2 [3] [%],mortality at 4 mg/m2 [3] [%]
"CC(NC(=O)c1cc(C(F)(F)F)cc(C(F)(F)F)c1)c1nc(Br)nn1-c1ccc(C#N)cn1 (racemic) [I-48, 3,5-di(trifluoromethyl)-N-{1-[3-bromo-1-(3-cyano-pyridin-6-yl)-1H-1,2,4-triazol-5-yl]ethyl}-benzamide]",100,100,100,100,90,100,–,–,–,–,–,–,–
C[C@H](NC(=O)c1cc(Cl)cc(Cl)c1)c1nc(C2CC2)nn1-c1ccc(C#N)cn1 [I-5],100,100,100,100,–,100,100,100,100,–,–,–,–
CC(C)c1nc([C@H](C)NC(=O)c2cc(Br)cc(C(F)(F)F)c2)n(-c2ccc(C#N)cn2)n1 [I-21],100,100,100,80,–,100,100,–,–,100,100,–,–
CC(C)c1nc([C@H](C)NC(=O)c2cc(Br)cc(C#N)c2)n(-c2ccc(C#N)cn2)n1 [I-25],100,100,100,100,–,100,100,–,–,100,80,–,–
CC(C)c1nc([C@H](C)NC(=O)c2cncc(Br)c2)n(-c2ccc(C#N)cn2)n1 [I-27],100,90,100,–,–,–,100,–,–,100,100,80 to 100,–
C[C@H](NC(=O)c1cc(Br)cc(Br)c1)c1nc(C2CC2)nn1-c1ccc(C#N)cn1 [I-36],100,100,90,100,–,100,–,–,–,100,–,–,–
C[C@H](NC(=O)c1cc(Br)cc(OC(F)(F)F)c1)c1nc(C2CC2)nn1-c1ccc(C#N)cn1 [I-41],100,100,100,–,–,100,–,–,–,–,–,–,–
Cc1nc([C@H](C)NC(=O)c2cncc(Br)c2)n(-c2ccc(C#N)cn2)n1 [II-49],100,100,100,100,–,–,100,–,–,–,100,–,80 to 100
CC[C@H](NC(=O)c1cc(Cl)cc(C(F)(F)F)c1)c1nc(C)nn1-c1ncc(OC(F)F)cn1 [II-60],100,100,100,–,–,–,100,–,–,–,–,–,–
CC[C@H](NC(=O)c1cc(Cl)cc(C(F)(F)F)c1)c1ncnn1-c1ncc(OC(F)F)cn1 [II-64],100,100,100,100,–,100,100,–,–,–,80,80 to 100,–
C[C@H](NC(=O)c1cc(Br)c(F)c(Br)c1)c1ncnn1-c1ccc(C#N)cn1 [II-82],100,100,100,80,–,100,–,–,–,80,80,80 to 100,80 to 100
